Where two headings read alike, the source gives them in different places.
Key:
recombinant human TDP2 = target: T1, recombinant human TDP2 (Homo sapiens, UniProt O95551); test: Gel-based TDP2 activity assay (removal of 5'-tyrosine from oligonucleotide, PAGE); assay type: biochemical; set-up: key to Tdp2 activity, c 200 µM / Tdp2 (inhibitor concentration 1 mM): TDP2 active (+); -: inactive (−); conditions: for Tdp2 activity, c 200 µM: c 200 µM (Table S3 head); for Tdp2 (inhibitor concentration 1 mM) / remaining activity at 1000 µM: inhibitor 1 mM; for remaining activity at 1000 µM: residual enzyme activity, read-out: TDP2 (Inhibitor Concentration 1 mM), residual activity of TDP2
T1 sequence (O95551 1-362): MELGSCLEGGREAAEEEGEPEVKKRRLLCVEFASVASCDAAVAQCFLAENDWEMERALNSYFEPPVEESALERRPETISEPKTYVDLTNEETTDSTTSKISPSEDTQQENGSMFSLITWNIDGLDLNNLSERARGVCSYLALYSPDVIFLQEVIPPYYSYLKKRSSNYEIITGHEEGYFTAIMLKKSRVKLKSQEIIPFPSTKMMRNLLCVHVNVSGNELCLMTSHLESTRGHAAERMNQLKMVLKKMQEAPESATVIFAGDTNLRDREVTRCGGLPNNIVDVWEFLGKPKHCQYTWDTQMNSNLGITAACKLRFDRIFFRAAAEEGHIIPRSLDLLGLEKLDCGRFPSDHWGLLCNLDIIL
Protocol: We investigated the activity against the TDP2 enzyme for compounds 4–10, 12–15, and 17–19 (Table 1). TDP2 was tested for its ability to eliminate tyrosine residue from the 5’-end of the oligonucleotide substrate. The TDP2 reaction products were separated under denaturing conditions in polyacrylamide gel (PAGE). […] Note that as different assays formats were used for TDP1 and TDP2 inhibition, the value of these assays cannot be directly compared. A paper on derivatives of usnic acid as effective TDP1 inhibitors and mild inhibitors of TDP2 was recently published. […] More inhibitors of this enzyme have also been reported in the literature. Obviously, further work for increasing activity against TDP2 is needed.
The oligonucleotide with tyrosine residue on the 5′-end (5′-tyrosine-AAC GTC AGG GTC TTC C-FAM-3′) was used for the TDP2 enzyme activity assay. The TDP2 reaction products were separated under denaturing conditions in polyacrylamide gel (PAGE). The reaction was performed in a final volume of 20 μL using 100 nM substrate incubated with 200 nM recombinant human TDP2 in the absence or presence of the inhibitor for 10 min at 37 °C in a buffer containing 50 mM Tris-HCl, pH 8.0, 50 mM NaCl, 7 mM β-mercaptoethanol. Reactions were terminated by the addition of gel loading buffer contained 10% formamide, 7 M carbamide, 0.1% xylene cyanol, and 0,1% bromophenol blue. The samples were heated at 90 °C for 7 min before loading on the gel. The reaction products were separated by electrophoresis in a 20% denaturing PAGE with 7 M carbamide. A Typhoon FLA 9500 phosphorimager (GE Healthcare) was used for gel scanning and imaging. Each experiment was carried out in three independent replicates. The data were analyzed with QuantityOne 4.6.7 software.

TDP1 = TDP1 (Homo sapiens, UniProt Q9NUW8); test: Real-time fluorescence detection of TDP1 activity (FAM/BHQ1 oligonucleotide biosensor); assay type: biochemical
Excerpt: For real-time detection of TDP1 activity, we used the oligonucleotide biosensor based on the ability of TDP1 to remove fluorophore quenchers from the 3′-end of DNA [29]. The hexadecameric oligonucleotide carried 5(6)-carboxyfluorescein (FAM) at the 5′-end and fluorophore quencher BHQ1 (Black Hole Quencher-1) at the 3′-end. TDP1 inhibitors prevent the removal of fluorophore quenchers, thus reducing fluorescence intensity.
TDP1 activity was detected, as described by intensity measurement in a reaction of quencher removal from a fluorophore quencher–coupled DNA oligonucleotide catalyzed by TDP1. The reaction was carried out at different concentrations of inhibitors (the control samples contained 1% of DMSO). The reaction mixtures contained TDP1 buffer (50 mM Tris-HCl pH 8.0, 50 mM NaCl, and 7 mM β-mercaptoethanol), 50 nM biosensor, and an inhibitor being tested. Purified TDP1 (1.5 nM) triggered the reaction. The biosensor (5′-[FAM] AAC GTC AGGGTC TTC C [BHQ]-3′) was synthesized in the Laboratory of Nucleic Acid Chemistry at the Institute of Chemical Biology and Fundamental Medicine (Novosibirsk, Russia).
The reactions were incubated on a POLARstar OPTIMA fluorimeter (BMG LABTECH, GmbH, Ortenberg, Germany) to measure fluorescence every 60 s (ex. 485/em. 520 nm) during the linear phase (here, data from minute 0 to minute 8). The values of IC50 were determined using a six-point concentration response curve in a minimum of three independent experiments and were calculated using MARS Data Analysis 2.0 (BMG LABTECH, Ortenberg, Germany).

[1] = Intrinsic cytotoxicity, EZ4U assay, HeLa; conditions: human, HeLa cells
Protocol: (§1) Next, we examined the intrinsic cytotoxicity of the compounds on HeLa cervical cancer cells and human embryonic kidney derived cells HEK293A.
(§2) Cytotoxicity of the compounds to HeLa (human cervical cancer) and HEK293A (human embryonic kidney) cell lines was examined using the EZ4U Cell Proliferation and Cytotoxicity Assay (Biomedica, Vienna, Austria), according to the manufacturer’s protocols. The cells were grown in Iscove’s modified Dulbecco’s medium (IMDM) with 40 μg/mL gentamicin, 50 IU/mL penicillin, 50 μg/mL streptomycin (MP Biomedicals, Waltham, MA, USA), and 10% of fetal bovine serum (Biolot, Saint Petersburg, Russia) in a 5% CO2 atmosphere. After the formation of a 30–50%monolayer, the tested compounds were added to the medium. […] The volume of the added reagents was 1/100 of the total volume of the culture medium, and the amount of DMSO was 1% of the final volume. Control cells were grown in the presence of 1% DMSO. The cell culture was monitored for three days.

[2] = Intrinsic cytotoxicity, EZ4U assay, HEK293A; conditions: human, HEK293A cells
Protocol: as §1, §2

[3] = read-out: IC50 (Tdp1, Table S4)
[4] = concentration that inhibits the activity of the enzyme by 50%, read-out: TDP1 IC50

Chain of TDP1 (Q9NUW8 whole entry): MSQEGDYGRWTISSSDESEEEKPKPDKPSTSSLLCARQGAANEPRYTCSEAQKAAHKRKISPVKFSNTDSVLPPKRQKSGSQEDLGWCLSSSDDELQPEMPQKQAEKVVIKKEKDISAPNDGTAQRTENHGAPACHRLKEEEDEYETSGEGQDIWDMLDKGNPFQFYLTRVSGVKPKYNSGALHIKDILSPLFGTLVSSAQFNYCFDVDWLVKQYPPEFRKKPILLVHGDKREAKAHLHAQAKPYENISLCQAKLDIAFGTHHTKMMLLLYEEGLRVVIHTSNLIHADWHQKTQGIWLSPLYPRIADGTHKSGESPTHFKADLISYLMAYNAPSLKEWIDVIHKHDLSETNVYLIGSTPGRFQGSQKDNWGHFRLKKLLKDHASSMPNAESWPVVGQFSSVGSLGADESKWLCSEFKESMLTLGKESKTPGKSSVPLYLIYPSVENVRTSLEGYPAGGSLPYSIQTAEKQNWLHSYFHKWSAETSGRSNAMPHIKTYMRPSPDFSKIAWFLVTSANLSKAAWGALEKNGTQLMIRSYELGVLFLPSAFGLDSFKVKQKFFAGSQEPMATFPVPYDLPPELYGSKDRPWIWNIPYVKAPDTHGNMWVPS

Row | SMILES | Tdp2 activity, c 200 µM (recombinant human TDP2) | Tdp2 (inhibitor concentration 1 mM) (recombinant human TDP2) | melting point | IC50 (TDP1; [3]) [nM] | remaining activity at 1000 µM (recombinant human TDP2) [%] | IC50 (TDP1; [4]) [nM] | CC50 at 72 h [1] [nM] | CC50 at 72 h [2] [nM]
1 | C[C@H](CCC(=O)O)[C@H]1CC[C@H]2[C@@H]3CC[C@@H]4C[C@H](OCc5ccccc5)CC[C@]4(C)[C@H]3C[C@H](O)[C@]12C [Compound 2, 3α-Benzyloxy-12α-hydroxy-5β-cholan-24-oic Acid] | + | + | 86 °C (dec.) | 18300 |  |  |  | 
2 | C[C@H](CCc1nc(-c2ccc(Br)cc2)no1)[C@H]1CC[C@H]2[C@@H]3CC[C@@H]4C[C@H](OCc5ccccc5)CC[C@]4(C)[C@H]3C[C@H](OCc3ccccc3)[C@]12C [Compound 15, 5′-(24-Nor-3α,12α-Dibenzyloxy-5β-cholan-23-yl)-3′-(4″-bromophenyl)-1′,2′,4′-oxadiazole] | - | - | 130.2 to 135.5 °C |  | > 50 | 420 ± 300 |  | 
3 | C[C@H](CCc1nc(Cc2ccc(Br)cc2)no1)[C@H]1CC[C@H]2[C@@H]3CC[C@@H]4C[C@H](OCc5ccccc5)CC[C@]4(C)[C@H]3C[C@H](OCc3ccccc3)[C@]12C [Compound 13, 5′-(24-Nor-3α,12α-dibenzyloxy-5β-cholan-23-yl)-3′-(methyl(4″-bromophenyl))-1′,2′,4′-oxadiazole] | - | - |  |  | > 50 | 530 ± 230 |  | 
4 | C[C@H](CCC(=O)O)[C@H]1CC[C@H]2[C@@H]3CC[C@@H]4C[C@H](OCc5ccccc5)CC[C@]4(C)[C@H]3CC(=O)[C@]12C [Compound 3, 3α-Benzyloxy-12α-oxo-5β-cholan-24-oic Acid] | + | + | 147.9 °C | 780 |  |  |  | 
5 | C[C@H](CCC(=O)N/N=C/c1ccc(Br)cc1)[C@H]1CC[C@H]2[C@@H]3CC[C@@H]4C[C@H](OCc5ccccc5)CC[C@]4(C)[C@H]3C[C@H](OCc3ccccc3)[C@]12C [Compound 18, N’-(4″-Bromobenzylidene)-3α,12α-dibenzyloxy-5β-cholan-24-hydrazide] | + | + | 147.7 to 150 °C |  | < 50 | 510 ± 210 |  | 
6 | C[C@H](CCC(=O)NCCCc1cc(C(C)(C)C)c(O)c(C(C)(C)C)c1)[C@H]1CC[C@H]2[C@@H]3CC[C@@H]4C[C@H](OCc5ccccc5)CC[C@]4(C)[C@H]3C[C@H](OCc3ccccc3)[C@]12C [Compound 10, N-(3″-(3′,5′-Di-tert-butyl-4′-hydroxyphenyl)propyl)-3α,12α-dibenzyloxy-5β-cholane-24-amide] | + | + |  |  | 45 ± 6 | 370 ± 170 | > 100000 | > 100000
7 | C[C@H](CCC(=O)NCCc1c[nH]c2ccccc12)[C@H]1CC[C@H]2[C@@H]3CC[C@@H]4C[C@H](OCc5ccccc5)CC[C@]4(C)[C@H]3CC(=O)[C@]12C [Compound 6, N-(2″-(1H-Indol-3′-yl)ethyl)-3α-benzyloxy-12-oxo-5β-cholane-24-amide] | + | + |  |  | 45 ± 4 | 590 ± 130 | > 100000 | > 100000
8 | C[C@H](CCC(=S)Nc1ccc(Br)cc1)[C@H]1CC[C@H]2[C@@H]3CC[C@@H]4C[C@H](OCc5ccccc5)CC[C@]4(C)[C@H]3C[C@H](OCc3ccccc3)[C@]12C [Compound 11, N-(4′-Bromophenyl)-3α,12α-dibenzyloxy-5β-cholane-24-thioamide] |  |  | 58 °C (dec.) |  |  |  |  | 
9 | C[C@H](CCC(=O)O/N=C(\N)c1ccc(Br)cc1)[C@H]1CC[C@H]2[C@@H]3CC[C@@H]4C[C@H](OCc5ccccc5)CC[C@]4(C)[C@H]3C[C@H](OCc3ccccc3)[C@]12C [Compound 14] | + | + | 144.5 to 147.4 °C |  | < 50 | 330 ± 150 |  | 
10 | C[C@H](CCc1nnc(-c2ccc(Br)cc2)o1)[C@H]1CC[C@H]2[C@@H]3CC[C@@H]4C[C@H](OCc5ccccc5)CC[C@]4(C)[C@H]3C[C@H](OCc3ccccc3)[C@]12C [Compound 19, 2′-(24-Nor-3α,12α-dibenzyloxy-5β-cholan-23-yl)-5′-(4″-bromophenyl)-1′,3′,4′-oxadiazole] |  |  | 131.4 °C (dec.) |  | < 50 | 1010 ± 430 |  | 
11 | COC(=O)CC[C@@H](C)[C@H]1CC[C@H]2[C@@H]3CC[C@@H]4C[C@H](OCc5ccccc5)CC[C@]4(C)[C@H]3C[C@H](OCc3ccccc3)[C@]12C [Compound 16, Methyl 3α,12α-Dibenzyloxy-5β-cholan-24-oate] | - | - | 93.3 to 93.7 °C |  |  |  |  | 
12 | C[C@H](CCC(=O)O/N=C(\N)Cc1ccc(Br)cc1)[C@H]1CC[C@H]2[C@@H]3CC[C@@H]4C[C@H](OCc5ccccc5)CC[C@]4(C)[C@H]3C[C@H](OCc3ccccc3)[C@]12C [Compound 12] | + | + | 80.2 to 83.9 °C |  | < 50 | 320 ± 130 |  | 
13 | C[C@H](CCC(=O)O)[C@H]1CC[C@H]2[C@@H]3CC[C@@H]4C[C@H](OCc5ccccc5)CC[C@]4(C)[C@H]3C[C@H](OCc3ccccc3)[C@]12C [Compound 1, 3α,12α-Dibenzyloxy-5β-cholan-24-oic acid] | + | + | 181.2 °C (dec.) | 440 |  |  |  | 
14 | C[C@H](CCC(=O)NN)[C@H]1CC[C@H]2[C@@H]3CC[C@@H]4C[C@H](OCc5ccccc5)CC[C@]4(C)[C@H]3C[C@H](OCc3ccccc3)[C@]12C [Compound 17, 3α,12α-Dibenzyloxy-5β-cholan-24-hydrazide] | + | + | 179 to 180 °C |  | > 50 | 230 ± 80 |  | 
15 | C[C@H](CCC(=O)Nc1ccc(Br)cc1)[C@H]1CC[C@H]2[C@@H]3CC[C@@H]4C[C@H](OCc5ccccc5)CC[C@]4(C)[C@H]3C[C@H](OCc3ccccc3)[C@]12C [Compound 7, N-(4′-Bromophenyl)-3α,12α-dibenzyloxy-5β-cholane-24-amide] | + | + | 186.2 to 191.3 °C |  | 44 ± 5 | 970 ± 460 |  | 
16 | C[C@H](CCC(=O)NCCc1c[nH]c2ccccc12)[C@H]1CC[C@H]2[C@@H]3CC[C@@H]4C[C@H](OCc5ccccc5)CC[C@]4(C)[C@H]3C[C@H](OCc3ccccc3)[C@]12C [Compound 4, N-(2″-(1H-Indol-3′-yl)ethyl)-3α,12α-dibenzyloxy-5β-cholane-24-amide] | + | + |  |  | 35 ± 4 | 750 ± 170 | > 100000 | > 100000
